Laboratory results as given in US11400084B2 (BioTheryX, Inc., priority 2018, dated 2022).

What was measured:
Assay type in all cases: cell-based
GSPT1 = biological target: T1, GSPT1 (Homo sapiens, UniProt P15170+Q96SW2); experiment: Western blot GSPT1 degradation assay in MV-4-11 cells; settings: 1 μM, MV-4-11 cells, 6-8 hours
T1 construct: whole cell protein extracts were separated on 4-12% SDS-polyacrylamide gels; endogenous in cells; host or cells: MV-4-11
Description: (§1) MV-4-11 cells were grown in RPMI 1640 media supplemented with 10% fetal bovine serum, streptomycin and penicillin.
(§2) Cells were cultured at approximately 10^6 cells per mL and incubated in DMSO or the indicated compound for 6-8 hours. Whole cell extracts were prepared using RIPA buffer according to manufacturer's protocol (Pierce). Briefly, 3×10^6 cells were washed once in PBS, the cell pellets were resuspended in RIPA buffer and allowed to incubate for 15 minutes on ice. Cells debris was removed by centrifugation and the cleared whole cell lysates were transferred to new tubes for further analysis.
(§3) For Western blot analysis, whole cell protein extracts were separated on 4-12% SDS-polyacrylamide gels, transferred to nitrocellulose and probed with the indicated primary antibodies. Membranes were subsequently washed and probed with the appropriate IRDye secondary antibodies (LI-COR). The signal was detected using the Odyssey Imaging System (LI-COR).
(§4) The following antibodies were used in these studies: Anti-eRF3/GSPT1: Abcam, ab126090 (Cambridge, Mass.); Anti-Ikaros: Abcam, ab191394 (Cambridge, Mass.); Anti-CK1α: Abcam, ab108296 (Cambridge, Mass.); β-actin (8H10D10) mouse monoclonal antibody: Cell Signaling Technology, #3700 (Danvers, Mass.); IRDye 680RD Goat anti-rabbit antibody: LI-COR, 926-68071 (Lincoln, Nebr.); IRDye 800CW Goat anti-mouse antibody: LI-COR, 926-32210 (Lincoln, Nebr.).
(§5) In each of Tables 1-3, the % degradation values are reported as “A”, “B”, “C”, or “D.” “A” represents a % degradation value of less than 25% (value<25%); “B” represents a % degradation value of equal to or more than 25% and less than 50% (25%≤value<50%); “C” represents a % degradation value of equal to or more than 50% and less than 75% (50%≤value<75%); and “D” represents a % degradation value of equal to or more than 75% (value≥75%).

CK1α = biological target: T2, CK1α (Homo sapiens, UniProt P48729+Q96SW2); experiment: Western blot CK1α degradation assay in MV-4-11 cells; settings: 6-8 hours
T2 construct: endogenous in cells; host or cells: MV-4-11
T2 sequence (P48729 whole entry): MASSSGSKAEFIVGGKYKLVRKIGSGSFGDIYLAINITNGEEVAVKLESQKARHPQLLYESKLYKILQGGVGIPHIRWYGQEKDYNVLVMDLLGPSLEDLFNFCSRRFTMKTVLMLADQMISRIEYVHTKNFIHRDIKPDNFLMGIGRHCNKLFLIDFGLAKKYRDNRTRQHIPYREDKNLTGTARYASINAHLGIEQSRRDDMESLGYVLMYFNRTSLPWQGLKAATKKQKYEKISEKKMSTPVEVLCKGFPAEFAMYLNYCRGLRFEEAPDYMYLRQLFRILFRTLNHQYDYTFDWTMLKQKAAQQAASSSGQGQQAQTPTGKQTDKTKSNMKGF
T2 sequence (Q96SW2 whole entry): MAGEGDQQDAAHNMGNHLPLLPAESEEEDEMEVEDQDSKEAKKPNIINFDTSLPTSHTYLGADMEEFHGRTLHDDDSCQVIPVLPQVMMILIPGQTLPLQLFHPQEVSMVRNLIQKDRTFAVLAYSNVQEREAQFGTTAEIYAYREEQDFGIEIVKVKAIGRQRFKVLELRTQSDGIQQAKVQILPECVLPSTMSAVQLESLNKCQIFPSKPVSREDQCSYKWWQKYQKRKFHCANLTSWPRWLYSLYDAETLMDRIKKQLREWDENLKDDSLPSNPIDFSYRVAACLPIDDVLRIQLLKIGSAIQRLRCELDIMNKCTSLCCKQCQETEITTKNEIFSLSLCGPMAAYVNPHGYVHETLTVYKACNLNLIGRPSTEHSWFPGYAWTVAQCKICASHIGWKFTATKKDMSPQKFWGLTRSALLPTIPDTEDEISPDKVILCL
T2 sequence (Q16531 whole entry partner): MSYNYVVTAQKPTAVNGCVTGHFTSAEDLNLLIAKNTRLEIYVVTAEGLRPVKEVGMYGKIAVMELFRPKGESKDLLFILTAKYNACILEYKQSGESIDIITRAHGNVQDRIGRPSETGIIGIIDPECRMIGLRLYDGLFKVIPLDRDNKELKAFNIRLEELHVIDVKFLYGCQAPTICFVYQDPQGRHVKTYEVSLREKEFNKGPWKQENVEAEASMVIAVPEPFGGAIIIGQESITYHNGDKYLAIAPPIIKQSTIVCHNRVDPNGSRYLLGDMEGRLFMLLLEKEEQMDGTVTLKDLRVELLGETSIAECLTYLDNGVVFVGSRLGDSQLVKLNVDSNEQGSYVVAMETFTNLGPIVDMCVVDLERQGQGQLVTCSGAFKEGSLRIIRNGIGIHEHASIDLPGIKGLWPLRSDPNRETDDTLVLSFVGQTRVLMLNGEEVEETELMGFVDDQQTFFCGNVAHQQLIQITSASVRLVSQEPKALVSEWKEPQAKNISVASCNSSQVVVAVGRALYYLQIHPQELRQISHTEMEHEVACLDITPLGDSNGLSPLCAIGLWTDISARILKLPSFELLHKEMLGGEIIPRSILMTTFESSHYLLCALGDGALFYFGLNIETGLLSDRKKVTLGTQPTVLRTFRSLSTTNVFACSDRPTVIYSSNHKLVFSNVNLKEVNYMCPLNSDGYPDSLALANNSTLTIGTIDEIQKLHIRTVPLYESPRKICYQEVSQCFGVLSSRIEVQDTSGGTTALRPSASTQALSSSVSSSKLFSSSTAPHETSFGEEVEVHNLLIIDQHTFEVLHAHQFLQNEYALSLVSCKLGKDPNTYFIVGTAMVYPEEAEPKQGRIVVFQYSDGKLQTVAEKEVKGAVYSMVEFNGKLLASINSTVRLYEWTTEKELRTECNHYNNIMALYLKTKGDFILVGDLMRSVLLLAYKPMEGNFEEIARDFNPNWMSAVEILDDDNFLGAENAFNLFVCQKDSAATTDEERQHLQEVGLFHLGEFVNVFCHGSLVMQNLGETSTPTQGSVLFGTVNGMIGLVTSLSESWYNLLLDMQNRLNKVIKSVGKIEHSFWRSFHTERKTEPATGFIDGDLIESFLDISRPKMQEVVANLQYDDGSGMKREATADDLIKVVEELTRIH
Description: as §1, §2, §3, §4, §5

MOLM-13 cells = experiment: MOLM-13 cell viability assay (CellTiter-Glo 2, 3 days, 2500 cells/well); settings: Homo sapiens, MOLM-13, 72 h, percentage of DMSO control
Description: MOLM-13 cells were cultured in RPMI 1640 media supplemented with 10% fetal bovine serum, streptomycin and penicillin, and were plated in white walled 96-well plates at 2500 cells/well. Cells were incubated in DMSO (control) or the indicated compound for 3 days at 37° C. and 5% CO2. Following the incubation period, 100 μL of CellTiterGlow2 (CTG2) reagent (CellTiter-Glo®2 Luminescent Cell Viability Assay, Promega (Madison, Wis.)) was added to each well. Following a 10 minutes incubation with shaking, luminescence was measured using the EnVision Multimode plate reader.
The MOLM-13 cell viability values, measured as percentages of the DMSO control, are reported in Table 8 as “A”, “B”, “C”, or “D.” “A” represents a % viability value of less than 40% (value<40%). “B” represents a % viability value of equal to or more than 40% and less than 60% (40%≤value<60%). “C” represents a % viability value of equal to or more than 60% and less than 90% (60%≤value<90%). “D” represents a % viability value of equal or more than 90% (value≥90%).

IKAROS = biological target: T3, IKAROS (Homo sapiens, UniProt Q13422+Q96SW2); experiment: Western blot IKAROS degradation assay in MV-4-11 cells; settings: 6-8 hours
T3 construct: endogenous in cells; host or cells: MV-4-11
T3 sequence (Q13422 whole entry): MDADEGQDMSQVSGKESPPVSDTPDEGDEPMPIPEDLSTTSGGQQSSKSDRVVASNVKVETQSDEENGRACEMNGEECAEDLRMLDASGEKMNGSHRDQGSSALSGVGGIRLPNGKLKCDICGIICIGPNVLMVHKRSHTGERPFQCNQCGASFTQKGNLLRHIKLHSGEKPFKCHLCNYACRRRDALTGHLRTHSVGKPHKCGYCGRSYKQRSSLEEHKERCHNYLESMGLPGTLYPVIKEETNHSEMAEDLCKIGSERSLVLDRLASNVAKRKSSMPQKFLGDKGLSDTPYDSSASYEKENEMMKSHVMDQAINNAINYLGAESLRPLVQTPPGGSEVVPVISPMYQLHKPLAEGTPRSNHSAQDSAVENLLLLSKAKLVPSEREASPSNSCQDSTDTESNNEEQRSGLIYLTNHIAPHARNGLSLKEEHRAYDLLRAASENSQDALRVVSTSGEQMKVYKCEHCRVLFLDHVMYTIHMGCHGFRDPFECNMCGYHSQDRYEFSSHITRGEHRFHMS
T3 sequence (Q96SW2 whole entry): as the sequence (Q96SW2 whole entry) above
T3 sequence (Q16531 whole entry partner): as the sequence (Q16531 whole entry partner) above
Description: as §1, §2, §3, §4, §5

IL-1β = IL-1β inhibition assay, LPS-induced PBMCs or CD14+ monocytes, Meso Scale; settings: 100 ng/mL LPS 18-24 h
Description: (§6) Either frozen primary blood mononuclear cells (PBMCs) or frozen CD14+ mobilized peripheral blood monocytes were purchased from AllCells (PB003F, Normal Peripheral Blood MNC (Alameda, Calif.)). Cells were quick thawed, washed 1-time with RPMI-1640 (10% FBS/1% Pen-Strep) and plated in 96 well plates at 200,000 cells per well. Cells were pretreated with DMSO only or with the indicated compound for 1 h and then induced with 100 ng/mL lipopolysaccharide (LPS) for 18-24 h. The supernatant was analyzed for IL-1β, IL-6, and TNFα, using Meso Scale assay according to manufacturer's protocol. The negative control wells were treated with DMSO.

TNFα = experiment: TNF-α inhibition assay, LPS-induced PBMCs or CD14+ monocytes, Meso Scale; settings: 100 ng/mL LPS 18-24 h
Description: as §6

IL-2 = IL-2 fold-change assay, anti-CD3 stimulated PBMCs, Mesoscale; settings: Homo sapiens, PBMC, 24 h, fold difference from the DMSO control
Description: For the IL-2 analysis, 96 well plates were precoated with 1 μg/mL anti-human CD3 antibody (OKT3, eBioscience Inc., San Diego, Calif.). After washing with PBS, the indicated compound was added (50 μL/well) followed by PBMCs diluted at 3-4 million cells/mL (150 μL/well). Plates were incubated for 24 h and the supernatants collected for Mesoscale IL-2 analysis. IL-2 activity is measured as fold difference from the DMSO control.
In Table 7, the fold-change values are reported as “A”, “B”, “C”, or “D”. “A” represents a fold-change value of equal to or less than 1 (value≤1); “B” represents a fold-change value of more than 1 and equal to or less than 2 (1<value≤2); “C” represents a fold-change value of more than 2 and equal to or less than 3 (2<value≤3); and “D” represents a fold-change value of more than 3 (value>3).

T1 sequence (P15170 whole entry): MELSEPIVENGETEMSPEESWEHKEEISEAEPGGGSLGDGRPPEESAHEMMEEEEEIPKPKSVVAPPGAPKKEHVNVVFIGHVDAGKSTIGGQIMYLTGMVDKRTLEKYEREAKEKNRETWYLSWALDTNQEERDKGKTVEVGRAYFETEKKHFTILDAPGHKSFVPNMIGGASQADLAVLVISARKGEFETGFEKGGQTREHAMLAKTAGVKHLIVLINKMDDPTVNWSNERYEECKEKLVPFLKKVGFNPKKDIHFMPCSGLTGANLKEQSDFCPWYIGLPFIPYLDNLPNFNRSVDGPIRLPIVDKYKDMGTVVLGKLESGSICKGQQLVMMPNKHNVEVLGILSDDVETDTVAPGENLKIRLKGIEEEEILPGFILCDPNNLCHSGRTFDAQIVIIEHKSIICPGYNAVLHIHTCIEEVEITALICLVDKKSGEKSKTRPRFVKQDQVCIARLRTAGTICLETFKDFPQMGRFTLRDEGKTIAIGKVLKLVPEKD
T1 sequence (Q96SW2 whole entry): as the sequence (Q96SW2 whole entry) above
T1 sequence (Q16531 whole entry partner): as the sequence (Q16531 whole entry partner) above

Row | SMILES | GSPT1 % Degradation at 1 μM (GSPT1) | CK1α % Degradation at 1 μM (CK1α) | viability at 1 µM (MOLM-13 cells) | IKAROS % Degradation at 1 μM (IKAROS) | inhibition at 1 µM (IL-1β) | inhibition at 1 µM (TNFα) | fold induction at 1 µM (IL-2)
1 | Cc1cc(NCC(=O)NCc2scc3c2CN(C2CCC(=O)NC2=O)C3=O)ccc1N(C)C (centres unmarked) [Compound 10, 2-((4-(dimethylamino)-3-methylphenyl)amino)-N-((5-(2,6-dioxopiperidin-3-yl)-4-oxo-5,6-dihydro-4H-thieno[3,4-c]pyrrol-1-yl)methyl)acetamide] | D (a % degradation value of equal to or more than 75% (value≥75%)) | B (a % degradation value of equal to or more than 25% and less than 50% (25%≤value<50%)) | > 90% | A (a % degradation value of less than 25% (value<25%)) |  |  | 
2 | Cc1cc(NCC(=O)NCc2ccc3c(c2)CN(C2CCC(=O)NC2=O)C3=O)ccc1N(C)C (centres unmarked) [Compound 25, 2-((4-(dimethylamino)-3-methylphenyl)amino)-N-((2-(2,6-dioxopiperidin-3-yl)-1-oxoisoindolin-5-yl)methyl)acetamide] | C (a % degradation value of equal to or more than 50% and less than 75% (50%≤value<75%)) | B (a % degradation value of equal to or more than 25% and less than 50% (25%≤value<50%)) |  |  | < 30% | 30 to 50% | 1 to 2
3 | Cc1ccc(NCC(=O)NCc2ccc3c(c2)CN(C2CCC(=O)NC2=O)C3=O)cc1N1CCCC1 (centres unmarked) [Compound 24, N-((2-(2,6-dioxopiperidin-3-yl)-1-oxoisoindolin-5-yl)methyl)-2-((4-methyl-3-(pyrrolidin-1-yl)phenyl)amino)acetamide] | D (a % degradation value of equal to or more than 75% (value≥75%)) | B (a % degradation value of equal to or more than 25% and less than 50% (25%≤value<50%)) | > 90% | D (a % degradation value of equal to or more than 75% (value≥75%)) |  |  | 
4 | Cc1ccc(NCC(=O)NCc2csc3c2CN(C2CCC(=O)NC2=O)C3=O)cc1Cl (centres unmarked) [Compound 5, 2-((3-chloro-4-methylphenyl)amino)-N-((5-(2,6-dioxopiperidin-3-yl)-6-oxo-5,6-dihydro-4H-thieno[2,3-c]pyrrol-3-yl)methyl)acetamide] |  | D (a % degradation value of equal to or more than 75% (value≥75%)) | < 40% | D (a % degradation value of equal to or more than 75% (value≥75%)) | > 75% | > 75% | > 3
5 | Cc1ccc(NCC(=O)NCc2cccc3c2CN(C2CCC(=O)NC2=O)C3=O)cc1Cl (centres unmarked) [Compound 14, 2-((3-chloro-4-methylphenyl)amino)-N-((2-(2,6-dioxopiperidin-3-yl)-1-oxoisoindolin-4-yl)methyl)acetamide] | C (a % degradation value of equal to or more than 50% and less than 75% (50%≤value<75%)) | C (a % degradation value of equal to or more than 50% and less than 75% (50%≤value<75%)) | 40 to 60% | D (a % degradation value of equal to or more than 75% (value≥75%)) | > 75% | 50 to 75% | 2 to 3
6 | CN(C)Cc1ccc(NCC(=O)NCc2ccc3c(c2)CN(C2CCC(=O)NC2=O)C3=O)cc1Cl (centres unmarked) [Compound 26] | C (a % degradation value of equal to or more than 50% and less than 75% (50%≤value<75%)) | C (a % degradation value of equal to or more than 50% and less than 75% (50%≤value<75%)) |  |  |  |  | 
7 | Cc1ccc(NCC(=O)NCc2ccc3c(c2)CN(C2CCC(=O)NC2=O)C3=O)nc1Cl (centres unmarked) [Compound 20, 2-((6-chloro-5-methylpyridin-2-yl)amino)-N-((2-(2,6-dioxopiperidin-3-yl)-1-oxoisoindolin-5-yl)methyl)acetamide] | B (a % degradation value of equal to or more than 25% and less than 50% (25%≤value<50%)) | B (a % degradation value of equal to or more than 25% and less than 50% (25%≤value<50%)) | > 90% | B (a % degradation value of equal to or more than 25% and less than 50% (25%≤value<50%)) | < 30% | 30 to 50% | 
8 | Cc1cc(NCC(=O)NCc2ccc3c(c2)CN(C2CCC(=O)NC2=O)C3=O)ccc1N1CCCC1 (centres unmarked) [Compound 21, N-((2-(2,6-dioxopiperidin-3-yl)-1-oxoisoindolin-5-yl)methyl)-2-((3-methyl-4-(pyrrolidin-1-yl)phenyl)amino)acetamide] | C (a % degradation value of equal to or more than 50% and less than 75% (50%≤value<75%)) | A (a % degradation value of less than 25% (value<25%)) | < 40% | C (a % degradation value of equal to or more than 50% and less than 75% (50%≤value<75%)) | < 30% | 30 to 50% | 1 to 2
